Laboratory results from patent publication US7459444B2, “Inhibitors of chymase” (Janssen Pharmaceutica N.V., priority 2004, dated 2008).

Target: T1, human skin chymase (Homo sapiens, UniProt P23946)
T1 construct: using human skin chymase (Cortex Biochem); purchased Cortex Biochem
T1 sequence (P23946 22-247): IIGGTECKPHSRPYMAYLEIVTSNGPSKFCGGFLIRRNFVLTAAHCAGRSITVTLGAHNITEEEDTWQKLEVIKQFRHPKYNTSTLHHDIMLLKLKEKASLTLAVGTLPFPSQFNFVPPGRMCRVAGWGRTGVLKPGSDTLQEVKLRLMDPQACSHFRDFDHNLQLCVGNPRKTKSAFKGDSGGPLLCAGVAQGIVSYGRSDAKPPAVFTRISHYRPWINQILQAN
Assay: Enzyme-catalyzed hydrolysis assay (chymase inhibition)
Type: biochemical
Conditions: 10 nM enzyme, 0.7 mM Suc-Ala-Ala-Pro-Phe-pNa, pH 8.0, 37° C., 30 minutes
Method: Enzyme-catalyzed hydrolysis rates were measured spectro-photometrically using human skin chymase (Cortex Biochem), a chromogenic substrate (Suc-Ala-Ala-Pro-Phe-pNa) (Bachem) in aqueous buffer (450 mM Tris, 1800 mM NaCl, pH 8.0), and a microplate reader (Molecular Devices). […] Percent inhibition was calculated by comparing the initial reaction slopes of the samples without inhibitor to those with inhibitor. IC50 values were determined using a four parameter fit logistics model. The term “NT” indicates a compound that was not tested.

Compound	IC50
Cn1cc(C(C(=O)Nc2ccc3ccccc3c2)P(=O)(O)O)c2cccc(Cl)c21 (stereo not drawn) [Cpd 58]	0.63 ± 0.13 µM
O=C(Nc1ccc2ccccc2c1)C(c1cc2ccccc2s1)P(=O)(O)O (stereo not drawn) [Cpd 140, [(Benzo[b]thiophen-2-yl)-(naphthalen-2-ylcarbamoyl)-methyl]-phosphonic acid]	9.2 ± 0.73 µM
O=C(Nc1ccc2ccccc2c1)C(c1cn(CC=Cc2ccccc2)c2ccccc12)P(=O)(O)O (stereo not drawn) [Cpd 27]	0.13 ± 0.02 µM
O=C(Nc1cnc2ccccc2c1)C(c1cccc2ccccc12)P(=O)(O)O (stereo not drawn) [Cpd 57]	0.609 µM
O=C(Nc1ccccc1)Oc1cc2ccccc2cc1NC(=O)C(c1cccc2ccccc12)P(=O)(O)O (stereo not drawn) [Cpd 95, [Naphthalen-1-yl-(3-phenylcarbamoyloxy-naphthalen-2-yl-carbamoyl)-methyl]-phosphonic acid]	2.8 µM
Cn1cc(C(C(=O)Nc2ccc3ccccc3c2)P(=O)(O)O)c2cc(Br)ccc21 (stereo not drawn) [Cpd 13]	0.04 ± 0.02 µM
Cn1cc(C(C(=O)N/C=C/c2cccc(F)c2)P(C)(=O)O)c2cc(Cl)ccc21 (stereo not drawn) [Cpd 6]	0.02 µM
CP(=O)(O)C(C(=O)N/C=C/c1ccccc1Cl)c1csc2ccc(Cl)cc12 (stereo not drawn) [Cpd 160]	0.065 ± 0.02 µM
CP(=O)(O)C(C(=O)NC=Cc1ccccc1N)c1csc2ccc(Cl)cc12 (stereo not drawn) [Cpd 151, [[2-(2-Amino-phenyl)-vinylcarbamoyl]-(5-chloro-benzo[b]thiophen-3-yl)-methyl]-methyl-phosphinic acid]	0.4 ± 0.12 µM
O=C(Nc1ccc2ccccc2c1)C(c1csc2ccc(Cl)cc12)P(=O)(O)CCCc1ccc(O)cc1 (stereo not drawn) [Cpd 43]	0.35 ± 0.07 µM
O=C(Nc1ccc2ccccc2c1)C(CO)c1csc2ccc(Cl)cc12 (stereo not drawn) [Cpd 136, 2-(5-Chloro-benzo[b]thiophen-3-yl)-3-hydroxy-N-naphthalen-2-yl-propionamide]	8.63 ± 0.81 µM
CP(=O)(O)C(C(=O)N/C=C/c1ccc(F)cc1)c1csc2ccc(Cl)cc12 (stereo not drawn) [Cpd 24]	0.1 ± 0.033 µM
CP(=O)(O)C(C(=O)NC=Cc1cccc(C(F)(F)F)c1)c1csc2ccc(Cl)cc12 (stereo not drawn) [Cpd 152]	0.13 ± 0.03 µM
O=C(N/C=C/c1cccnc1)C(c1csc2ccc(Cl)cc12)P(=O)(O)O (stereo not drawn) [Cpd 25]	0.109 ± 0.03 µM
O=C(Nc1ccc2ccccc2c1)C(c1cn(CC2CC2)c2ccccc12)P(=O)(O)O (stereo not drawn) [Cpd 62]	0.82 ± 0.5 µM
Nc1nc2ccc(NC(=O)C(c3csc4ccc(Cl)cc34)P(=O)(O)O)cc2s1 (stereo not drawn) [Cpd 69, [(5-Chloro-benzo[b]thiophen-3-yl)-(2-amino-4-benzothioazol-6-ylcarbamoyl)-methyl]-phosphonic acid]	0.93 ± 0.95 µM

Second part, the molecule after the results:

IC50	Compound
0.021 ± 0.01 µM	O=C(Nc1cc(NC(=O)C(c2cccc3ccccc23)P(=O)(O)O)cc2ccccc12)C1CCN(C(=O)c2ccc3ccccc3c2)CC1 (stereo not drawn) [Cpd 8, [(4-{[1-(Naphthalene-2-carbonyl)-piperidine-4-carbonyl]-amino}-naphthalen-2-ylcarbamoyl)-naphthalen-1-yl-methyl]-phosphonic acid]
4.62 µM	CN(Cc1ccccc1)C(=O)c1cc2ccccc2cc1NC(=O)C(c1cccc2ccccc12)P(=O)(O)O (stereo not drawn) [Cpd 111]
4.45 µM	O=C(Nc1cc2ccccc2cc1NCCCCCc1ccccc1)C(c1cccc2ccccc12)P(=O)(O)O (stereo not drawn) [Cpd 110]
0.663 µM	O=C(Nc1cc2ccccc2cc1C(=O)N1CCC(n2c(=O)[nH]c3ccc(Cl)cc32)CC1)C(c1cccc2ccccc12)P(=O)(O)O (stereo not drawn) [Cpd 60, ({3-[4-(6-Chloro-2-oxo-2,3-dihydro-benzoimidazol-1-yl)-piperidine-1-carbonyl]-naphthalen-2-ylcarbamoyl}-naphthalen-1-yl-methyl)-phosphonic acid]
2.75 µM	O=C(Nc1ccccc1)OCc1cc2ccccc2cc1NC(=O)C(c1cccc2ccccc12)P(=O)(O)O (stereo not drawn) [Cpd 94]
2.8 µM	O=C(Nc1ccc2ccccc2n1)C(c1cccc2ccccc12)P(=O)(O)O (stereo not drawn) [Cpd 96]
7.44 ± 3.73 µM	O=C(COc1cc2ccccc2cc1NC(=O)C(c1cccc2ccccc12)P(=O)(O)O)NCCCc1ccccc1 (stereo not drawn) [Cpd 130]
4.8 ± 1.69 µM	O=C(Nc1cc2ccccc2cc1C(=O)N1CCC(c2nc3ccccc3s2)CC1)C(c1cccc2ccccc12)P(=O)(O)O (stereo not drawn) [Cpd 113]
